Laboratory results as given in patent publication US20250042876A1, “HERBICIDAL PYRAZOLE PYRIMIDINE COMPOUNDS” (SYNGENTA CROP PROTECTION AG, priority 2021, published 2025).

Key:
Assay type in all cases: in vivo
Details in all cases: 250 g/ha, evaluated after 13 days
[1] = tested on: Echinochloa crus-galli (ECHCG); test: Pre-emergence herbicidal test, glasshouse
Method: (§1) Seeds of a variety of test species are sown in standard soil in pots Amaranthus palmeri (AMAPA), Amaranthus retoflexus (AMARE), Setaria faberi (SETFA), Echinochloa crus-galli (ECHCG), Ipomoea hederacea (IPOHE)). After cultivation for one day (pre-emergence) or after 8 days cultivation (post-emergence) under controlled conditions in a glasshouse (at 24/16° C., day/night; 14 hours light; 65% humidity), the plants are sprayed with an aqueous spray solution derived from the formulation of the technical active ingredient in acetone/water (50:50) solution containing 0.5% Tween 20 (polyoxyethelyene sorbitan monolaurate, CAS RN 9005-64-5). Compounds are applied at 250 g/ha unless otherwise stated. The test plants are then grown in a glasshouse under controlled conditions in a glasshouse (at 24/16° C., day/night; 14 hours light; 65% humidity) and watered twice daily. After 13 days for pre and post-emergence, the test is evaluated for the percentage damage caused to the plant. The biological activities are shown in the following table on a five-point scale (5=81-100%; 4=61-80%; 3=41-60%; 2=21-40%; 1=0-20%).

[2] = tested on: Ipomoea hederacea (IPOHE); test: Pre-emergence herbicidal test, glasshouse
Method: as §1

[3] = tested on: Amaranthus retoflexus (AMARE); test: Pre-emergence herbicidal test, glasshouse
Method: as §1

[4] = tested on: Amaranthus palmeri (AMAPA); test: Pre-emergence herbicidal test, glasshouse
Method: as §1

[5] = tested on: Echinochloa crus-galli (ECHCG); test: Post-emergence herbicidal test, glasshouse
Method: as §1

[6] = tested on: Ipomoea hederacea (IPOHE); test: Post-emergence herbicidal test, glasshouse
Method: as §1

[7] = tested on: Amaranthus retoflexus (AMARE); test: Post-emergence herbicidal test, glasshouse
Method: as §1

[8] = tested on: Amaranthus palmeri (AMAPA); test: Post-emergence herbicidal test, glasshouse
Method: as §1

Structure (SMILES)	ECHCG percentage damage caused to the plant (five-point scale) [1]	IPOHE percentage damage caused to the plant (five-point scale) [2]	AMARE percentage damage caused to the plant (five-point scale) [3]	AMAPA percentage damage caused to the plant (five-point scale) [4]	ECHCG percentage damage caused to the plant (five-point scale) [5]	IPOHE percentage damage caused to the plant (five-point scale) [6]	AMARE percentage damage caused to the plant (five-point scale) [7]	AMAPA percentage damage caused to the plant (five-point scale) [8]
FC(F)(F)c1cc(Cc2ncc(Cl)cn2)n(-c2ccc(Cl)nc2)n1 [Compound 1.009]	5 (5=81-100%)	5 (5=81-100%)	5 (5=81-100%)	5 (5=81-100%)	5 (5=81-100%)	4 (4=61-80%)	5 (5=81-100%)	5 (5=81-100%)
N#Cc1ccc(-n2nc(C#N)cc2Cc2ncc(Cl)cn2)cn1 [Compound 1.019]	4 (4=61-80%)	5 (5=81-100%)	5 (5=81-100%)	5 (5=81-100%)	4 (4=61-80%)	3 (3=41-60%)	5 (5=81-100%)	5 (5=81-100%)
N#Cc1cc(Cc2ncc(Cl)cn2)n(-c2ccc(Cl)nc2)n1 [Compound 1.020]	5 (5=81-100%)	5 (5=81-100%)	5 (5=81-100%)	5 (5=81-100%)	5 (5=81-100%)	4 (4=61-80%)	5 (5=81-100%)	5 (5=81-100%)
Clc1cnc(Cc2cc(I)nn2-c2ccc(Cl)nc2)nc1 [Compound 1.021]	5 (5=81-100%)	5 (5=81-100%)	5 (5=81-100%)	5 (5=81-100%)	5 (5=81-100%)	4 (4=61-80%)	5 (5=81-100%)	5 (5=81-100%)
FC(F)(Cl)c1cc(Cc2ncc(Cl)cn2)n(-c2ccc(Cl)nc2)n1 [Compound 1.022]	5 (5=81-100%)	5 (5=81-100%)	5 (5=81-100%)	5 (5=81-100%)	5 (5=81-100%)	3 (3=41-60%)	5 (5=81-100%)	5 (5=81-100%)
FC(F)(Cl)c1cc(Cc2ncc(Cl)cn2)n(-c2cnc(Cl)c(Cl)c2)n1 [Compound 1.023]	5 (5=81-100%)	5 (5=81-100%)	5 (5=81-100%)	5 (5=81-100%)	4 (4=61-80%)	3 (3=41-60%)	5 (5=81-100%)	5 (5=81-100%)
Fc1ccc(-n2nc(C(F)(F)Cl)cc2Cc2ncc(Cl)cn2)cc1F [Compound 1.024]	5 (5=81-100%)	5 (5=81-100%)	5 (5=81-100%)	5 (5=81-100%)	5 (5=81-100%)	4 (4=61-80%)	5 (5=81-100%)	5 (5=81-100%)
CS(=O)(=O)c1ccc(-n2nc(C(F)F)cc2Cc2ncc(Cl)cn2)cc1 [Compound 1.027]	5 (5=81-100%)	5 (5=81-100%)	5 (5=81-100%)	5 (5=81-100%)	5 (5=81-100%)	5 (5=81-100%)	5 (5=81-100%)	5 (5=81-100%)
N#Cc1ccc(-n2nc(C(F)F)cc2Cc2ncc(Cl)cn2)cc1 [Compound 1.028]	5 (5=81-100%)	5 (5=81-100%)	5 (5=81-100%)	5 (5=81-100%)	5 (5=81-100%)	4 (4=61-80%)	5 (5=81-100%)	5 (5=81-100%)
FC(F)c1cc(Cc2ncc(Cl)cn2)n(-c2ccc(Cl)cc2)n1 [Compound 1.029]	5 (5=81-100%)	5 (5=81-100%)	5 (5=81-100%)	5 (5=81-100%)	4 (4=61-80%)	4 (4=61-80%)	5 (5=81-100%)	5 (5=81-100%)
FC(F)c1cc(Cc2ncc(Cl)cn2)n(-c2cnc(Cl)c(Cl)c2)n1 [Compound 1.030]	5 (5=81-100%)	4 (4=61-80%)	5 (5=81-100%)	5 (5=81-100%)	4 (4=61-80%)	4 (4=61-80%)	5 (5=81-100%)	5 (5=81-100%)
FC(F)c1cc(Cc2ncc(Cl)cn2)n(-c2cccc(Cl)c2)n1 [Compound 1.031]	5 (5=81-100%)	5 (5=81-100%)	5 (5=81-100%)	5 (5=81-100%)	4 (4=61-80%)	4 (4=61-80%)	5 (5=81-100%)	4 (4=61-80%)
